# From paper PMC3653934, “Identification of Adiponectin Receptor Agonist Utilizing a Fluorescence Polarization Based High Throughput Assay” (PLoS ONE, 2013)
# Where two headings read alike, the source gives them in different places.
# Experiments:
# MCF-7 cells = assay: Cell viability assay (CellTiter-Blue) in MCF-7 cells; assay type: cell-based; details: Homo sapiens, MCF7; 72 h, 20 µM to 1.2 nM; read-out: IC50 (µM) MCF-7 cells, cell viability
# Experimental: All cell lines were obtained from the American Type Culture Collection (ATCC). MCF-7 and MDA-MB-231 cells were maintained in DMEM containing 10% fetal bovine serum and supplied with 1% penicillin/streptomycin. All cells were maintained in a 5% CO2 atmosphere at 37°C.
# The effects of the lead compounds on cell proliferation were tested in MCF-7 and MDA-MB-231 cells. Cells were grown to 80% confluence, harvested and aliquoted into 384-well plates in a total volume of 45 µl per well. The outer wells were inoculated with sterile water to minimize evaporation from the sample wells. Cells were allowed to attach overnight and 5 µl culture media containing either vehicles or drug were added. Cell proliferation was evaluated using CellTilter-Blue reagent (Promega, China) according to manufacturer’s instructions after 72-h incubation. Fluorescence was measured with an excitation at 530 nm and emission at 590 nm. After background subtraction, cell viability values were normalized to vehicle controls and expressed as percentage of the mean of the relative vehicle controls.
# To further confirm the agonistic activity of hit compounds, MDA-MB-231 and MCF-7 cells were treated with different concentrations of g-Ad or drug (20 µM to 1.2 nM) for 72 hours and cell viability was measured. Thus, four compounds (arctiin, (-)-arctigenin, matairesinol and gramine) that show agonistic activity against adiponectin receptor 1 and four compounds (deoxyschizandrin, taxifoliol, syringing and parthenolide) that show agonistic activity against adiponectin receptor 2 were identified.
# AdipoR1 = target: T1, AdipoR1 (Homo sapiens, UniProt Q96A54); assay: Competitive FP assay, displacement of probe 1 from AdipoR1; assay type: binding; details: 2 µM receptor, 100 nM probe 1, 30 min, 25°C
# T1 construct: The cDNAs encoding full-length of AdipoR1 or AdipoR2 were then sub-cloned into the mammalian expression vector pBEX and pcDNA3.1–Myc-His(+); His (C); Myc (C); made in house; host or cells: CHO cells
# T1 sequence (Q96A54 1-375): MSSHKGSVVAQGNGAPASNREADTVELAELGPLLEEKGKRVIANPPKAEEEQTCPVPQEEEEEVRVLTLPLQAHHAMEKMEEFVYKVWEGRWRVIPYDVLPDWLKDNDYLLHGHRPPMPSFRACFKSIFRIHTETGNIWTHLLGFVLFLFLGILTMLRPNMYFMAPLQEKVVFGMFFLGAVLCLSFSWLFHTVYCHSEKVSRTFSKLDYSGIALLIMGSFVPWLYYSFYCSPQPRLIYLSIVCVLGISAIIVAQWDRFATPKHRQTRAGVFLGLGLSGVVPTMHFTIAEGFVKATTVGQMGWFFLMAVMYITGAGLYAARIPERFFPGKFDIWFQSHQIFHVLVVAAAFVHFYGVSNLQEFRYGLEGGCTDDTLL
# Experimental: Unlabeled short peptide 3 was titrated against the FITC-labeled peptide and adiponectin receptor mixture. Plates were incubated at room temperature for up to 3 hours or 30 min at different temperatures. FP values were taken and IC50 values were calculated.
# Master mixtures containing fluorescein-labeled probe 1 and adiponectin receptor (AdipoR1 or AdiopR2, 2 µM and probe 1 at 100 nM) in a reaction volume of 19 µl were prepared and loaded to plates. The library compounds (10 µM –0.078 µM, half dilutions) were prepared separately and transferred into the assay plates. The first and last columns of each plate were used as positive and negative control wells. Wells containing the drug only were used as controls to detect auto-fluorescence of the compounds in the total fluorescence assay. After subtraction of the background signal, data was processed and the IC50 values were determined by non-linear least square fitting using SigmaPlot 11.0.
# Given that the present study is a screening study, peptide 3 was chosen as the positive control for cost-efficiency purposes.
# To optimize the FP assay properly, it was necessary to assess the stability of the FP assay. The conditions for the FP assay were established by testing various parameters including incubation temperature, time, TF values, ΔmP values, and DMSO tolerance. […] In summary, the competitive FP binding assay conditions ideal for identifying adiponectin receptor agonists are: i) 2 µM adiponectin receptor, ii) 100 nM probe 1, iii) 5% final DMSO concentration (v/v), and iv) incubation for 30 min at 25°C before reading the plate.
# A pilot screen against the natural product library of 10,000 compounds described above was performed at screening concentrations of 10 µM to 0.078 µM (half serial dilutions) in 5% DMSO (v/v). Controls present in each assay plate consisted of 5% DMSO (negative control) or peptide 3 (positive control).
# We screened a library of 10,000 natural compounds for adiponectin agonists. […] 46 compounds that could generate IC50 curves were identified as initial hits.
# [1] = primary screen, read-out: IC50 vs AdipoR1 (µM) Primary screen
# [2] = validation, read-out: IC50 vs AdipoR1 (µM) Validated
Structure (SMILES),IC50 (MCF-7 cells) [µM],IC50 (AdipoR1; [1]) [µM],IC50 (AdipoR1; [2]) [µM]
"CN(C)Cc1c[nH]c2ccccc12 [Compound 9, Gramine]",0.1 ± 0.1,4.5,4.2 ± 0.5
"COc1cc(C[C@H]2COC(=O)[C@@H]2Cc2ccc(O)c(OC)c2)ccc1O [Compound 3, Matairesinol]",> 10,0.9,0.8 ± 0.2
"COc1cc2c(c(OC)c1OC)-c1c(cc(OC)c(OC)c1OC)C[C@H](C)[C@H](C)C2 [Compound 4, Deoxyschizandrin]",5.5 ± 0.6,> 5,> 5

# Results, then the compound that gave them:
IC50 (MCF-7 cells) [µM],IC50 (AdipoR1; [1]) [µM],IC50 (AdipoR1; [2]) [µM],Structure (SMILES)
> 10,1.2,1.3 ± 0.2,"COc1ccc(C[C@H]2COC(=O)[C@@H]2Cc2ccc(O[C@@H]3O[C@H](CO)[C@@H](O)[C@H](O)[C@H]3O)c(OC)c2)cc1OC [Compound 1, Arctiin]"
2.5 ± 0.4,> 5,> 5,"C=C1C(=O)O[C@H]2[C@H]1CC/C(C)=C/CC[C@@]1(C)O[C@@H]21 [Compound 7, Parthenolide]"
